Data on 47 compounds can be found in patent US6410561B1, “Amide derivatives and nociceptin antagonists” (Japan Tobacco Inc., priority 1998, dated 2002).

Structures are written as SMILES. Counter-ions that a name gives are not always drawn.

One series addresses T1, ORL-1 receptor (Homo sapiens, UniProt P41146).
T1 construct: expressed in transfected cells
Nature of the series: ORL1 receptor binding assay ([3H]nociceptin). The following applies: for Ki: calculated from IC50 and Kd of [3H]nociceptin; for IC50: membrane of human ORL-1 expression cells, [3H]nociceptin 0.5 nM. How it is done:
ORL1 Receptor Binding Assay
A cell membrane suspension obtained from human ORL-1 expression cells was adjusted with Tris buffer [50 mM Tris, 2 mM EDTA, 0.1 mM (p-Amidinophenyl)methanesulfonyl Fluoride Hydrochloride (p-APMSF), 2 mg/ml BSA] to membrane protein amount of about 25 μg/ml (2.5 μg/well). This was mixed with [^3H]nociceptin (diluted with Tris buffer to a final concentration of 0.5 nM) and test compound (diluted with Tris buffer to a final concentration of 10 nM-10 μM), and the mixture was incubated at room temperature for 60 min. The membrane was recovered on a G/F-B filter (Packard, Unifilter 96GF/B) using a cell harvester and the reaction was stopped. After washing 3 times, the filter was dried at 42° C. for 1 hr. A scintillation solution (Packard, microscint-20) was added and the radioactivity (Packard, Top count A9912V) was assayed.
The nonspecific binding was the binding in the presence of 1 μM nociceptin and the difference between the total binding and nonspecific binding was taken as the specific binding. IC50 was calculated from inhibition of specific binding at each concentration of the compound, and Ki value of the test compound was calculated from this value and Kd value of [^3H]nociceptin.

The target of the next series is T2, μ receptor (Rattus norvegicus, UniProt P33535).
T2 construct: Rat cerebrum membrane standard sample; from tissue; host or cells: rat cerebrum membranes
T2 sequence (P33535 whole entry): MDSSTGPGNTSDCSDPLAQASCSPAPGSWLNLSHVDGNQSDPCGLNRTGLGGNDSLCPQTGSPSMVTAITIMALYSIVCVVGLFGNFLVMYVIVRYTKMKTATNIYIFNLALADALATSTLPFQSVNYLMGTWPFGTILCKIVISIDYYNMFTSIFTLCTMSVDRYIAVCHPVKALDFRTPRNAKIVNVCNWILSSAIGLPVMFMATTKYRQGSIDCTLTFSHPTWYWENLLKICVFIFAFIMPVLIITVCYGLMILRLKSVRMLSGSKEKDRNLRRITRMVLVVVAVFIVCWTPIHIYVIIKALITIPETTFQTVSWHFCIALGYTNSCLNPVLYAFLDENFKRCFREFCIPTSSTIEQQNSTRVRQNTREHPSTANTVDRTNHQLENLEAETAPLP
Nature of the series: μ receptor binding assay ([3H]DAMGO). The following applies: for Ki: calculated from IC50 and Kd of [3H]DAMGO; for IC50: rat cerebrum membrane, [3H]DAMGO 1 nM. How it is done:
Rat cerebrum membrane standard sample (final concentration 0.755 mg·protein/ml), [^3H]DAMGO (Try-D-Ala-Gly-NMe-Phe-Gly-ol) [diluted with Tris buffer (50 mM Tris-HCl, 0.1 mM p-APMSF, 2 mg/ml BSA (pH=7.4)) to a final concentration of 1 nM] and test compound (diluted with Tris buffer to a final concentration of 10 nM-10 μM) were mixed, and the mixture was incubated at room temperature for 90 min. The membrane was recovered on a G/F-B filter (same as above) using a cell harvester and the reaction was stopped. After washing 3 times, the filter was dried at 42° C. for 1 hr. A scintillation solution (same as above) was added and the radioactivity (same as above) was assayed.
The nonspecific binding was the binding in the presence of 10 μM naloxone and the difference between the total binding and nonspecific binding was taken as the specific binding. IC50 was calculated from inhibition of specific binding at each concentration of the compound, and Ki value of the test compound was calculated from this value and Kd value of [^3H]DAMGO.

The test system of the next series is allodynia model. Nature of the series: Allodynia test (intrathecal nociceptin, tactile stimulation). Format: in vivo, Mice. Particulars: Mus musculus; mice, oral, 60 min before nociceptin 50 pg i.t.; score at 20 min; read-out: Allodynia M.E.D. (minimum effective dose). How it is done: Mice (Crj, ICR, 4-week-old, male) were intrathecally administered with nociceptin (50 pg/5 μl) without anesthesia. For 20 min after administration and at 5 min intervals, an area from lateral region to tail of the mice was rubbed with a brush and the response of the mice was observed. The evaluation followed the criteria of 0; no change, 1; run or cry upon tactile stimulation, and 2; cry loud or dash away upon tactile stimulation. The test compound was suspended in a 0.5% MC solution and orally administered 60 min before nociceptin administration. The significant difference of the score of each administration group at 20 min after nociceptin administration from the group administered with solvent was analyzed with Mann-Whitny U-test.

T1 sequence (P41146 whole entry): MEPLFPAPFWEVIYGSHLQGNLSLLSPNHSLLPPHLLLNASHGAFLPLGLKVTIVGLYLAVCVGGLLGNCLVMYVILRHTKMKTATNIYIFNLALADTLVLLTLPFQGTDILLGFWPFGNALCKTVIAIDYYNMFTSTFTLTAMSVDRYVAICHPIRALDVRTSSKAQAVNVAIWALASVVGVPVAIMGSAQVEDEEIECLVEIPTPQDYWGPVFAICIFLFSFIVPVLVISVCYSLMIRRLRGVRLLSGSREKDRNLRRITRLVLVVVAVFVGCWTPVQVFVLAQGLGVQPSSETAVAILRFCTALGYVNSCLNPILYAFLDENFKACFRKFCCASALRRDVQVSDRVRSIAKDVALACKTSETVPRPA

What is called melting point is the temperature of the solid-liquid transition. Turning to `Cc1cc(N)c2cc(NC(=O)c3ccccc3CN(C(=O)OC(C)(C)C)c3ccc(Cl)cc3)ccc2n1.Cl`, the melting point is 208 °C. The same measure, in the same setting: as for `Cc1cc(N)c2cc(NC(=O)c3sccc3COc3ccc(Cl)cc3)ccc2n1.Cl`, the figure is 219 °C; as for `CNc1cc(C)nc2ccc(NC(=O)c3ccccc3COc3ccccc3)cc12.Cl`, 284 °C; as for `CCc1ccc(OCc2ccccc2C(=O)Nc2ccc3nccc(N)c3c2)cc1.Cl`, 219 °C. The compound `Cl.Nc1ccnc2ccc(NC(=O)c3ccccc3COc3ccc(Cl)cc3)cc12` yielded a melting point of 231 °C. Same read-out and setting: as for `Cl.Nc1c2c(nc3ccc(NC(=O)c4ccccc4COc4ccc(Cl)cc4)cc13)CCCC2`, the figure is 283 °C. Same read-out and setting: in the case of `CSc1nc2ccc(NC(=O)c3ccccc3COc3ccccc3)cc2[nH]1.Cl` it was 191 °C. Still for that read-out and setting: in the case of `Cl.Nc1cccc2ccc(NC(=O)c3ccccc3COc3ccccc3)cc12` it was 237 °C. Take `Cc1ccc(OCc2ccccc2C(=O)Nc2ccc3nc(CO)cc(N)c3c2)cc1.Cl`: the melting point came to 201 °C. On the same count and under the same terms, as for `Cl.Nc1ccc(NC(=O)c2ccccc2COc2ccccc2)cc1`, the figure is 241 °C; as for `COc1cccc(OCc2ccccc2C(=O)Nc2ccc3nc(C)cc(N)c3c2)c1.Cl`, 224 °C. The same measure, in the same setting: as for `Cc1cc(N)c2cc(NC(=O)c3ccccc3COc3ccc(-c4ccccc4)cc3)ccc2n1.Cl`, the figure is 268 °C. On the same count and under the same terms, as for `Cc1cc(N)c2cc(NC(=O)c3ccccc3COc3ccc(C(C)C)cc3)ccc2n1.Cl`, the figure is 256 °C; as for `Cc1cc(N)c2cc(NC(=O)c3ccccc3COc3cccc(F)c3)ccc2n1.Cl`, 255 °C; as for `Cc1cc(N)c2cc(NC(=O)c3ccccc3COc3cccc(C(F)(F)F)c3)ccc2n1.Cl`, 253 °C. Compound `COC(=O)c1ccc(OCc2ccccc2C(=O)Nc2ccc3nc(C)cc(N)c3c2)cc1.Cl` gave a melting point of 262 °C.

Take `Cc1cc(N)c2cc(NC(=O)c3ccccc3COc3cccnc3)ccc2n1.Cl`: the melting point turned out to be 207 °C. The same measure, in the same setting: as for `Cc1cc(N)c2cc(NC(=O)c3ccccc3COc3ccc(C(=O)O)cc3)ccc2n1.Cl`, the figure is 225 °C; as for `Cc1cc(N)c2cc(NC(=O)c3ccccc3COc3cccc(C#N)c3)ccc2n1.Cl`, 195 °C; as for `CC(=O)OCc1ccc(OCc2ccccc2C(=O)Nc2ccc3nc(C)cc(N)c3c2)cc1.Cl`, 258 °C. Take `Cc1cc(N)c2cc(NC(=O)c3ccccc3COc3ccc(CO)cc3)ccc2n1.Cl`: the melting point was found to be 273 °C. Still for that read-out and setting: as for `COc1ccc(OCc2ccccc2C(=O)Nc2ccc3nc(C)cc(N)c3c2)cc1OC.Cl`, the figure is 270 °C; as for `Cc1cc(N)c2cc(NC(=O)c3ccccc3COc3ccc4c(c3)CCCC4)ccc2n1.Cl`, 176 °C; as for `Cc1cc(N)c2cc(NC(=O)c3cccc(CCc4ccccc4)c3)ccc2n1.Cl`, greater than 300 °C. Same read-out and setting: as for `Cc1cc(N)c2cc(NC(=O)c3ccccc3CCCCc3ccccc3)ccc2n1.Cl`, the figure is 233 °C; as for `Cc1cc(N)c2cc(NC(=O)c3ccccc3CCCCCCc3ccccc3)ccc2n1.Cl`, 213 °C; as for `Cc1ccc(CCc2ccccc2C(=O)Nc2ccc3nc(C)cc(N)c3c2)cc1.Cl`, greater than 300 °C. Same read-out and setting: in the case of `Cc1cc(N)c2cc(NC(=O)c3ccccc3OCc3ccccc3)ccc2n1.Cl` it was 240 °C. The compound `Cc1cc(N)c2cc(NC(=O)c3ccccc3COc3ccc4occc4c3)ccc2n1.Cl` displayed a melting point of 269 °C. Compound `COCc1ccccc1C(=O)Nc1ccc2nc(C)cc(N)c2c1.Cl` registered a melting point of 244 °C. On the same count and under the same terms, in the case of `Cc1cc(N)c2cc(NC(=O)c3ccccc3CSc3ccc(Cl)cc3)ccc2n1.Cl` it was 216 °C; in that of `Cc1cc(N)c2cc(NC(=O)c3ccccc3C[S+]([O-])c3ccc(Cl)cc3)ccc2n1.Cl` (centres unmarked), 221 °C.

As for `Cc1cc(N)c2cc(NC(=O)c3ccccc3COc3ccc(N(C)C)cc3)ccc2n1` (as salt: hydrochloride), the melting point turned out to be 233 °C. On the same count and under the same terms, in the case of `Cc1cc(N)c2cc(NC(=O)c3ccccc3COc3ccc(N)cc3)ccc2n1` (as salt: hydrochloride) [Example 23, N-(4-amino-2-methyl-6-quinolyl)-2-[(4-aminophenoxy)methyl]benzamide dihydrochloride] it was 237 °C. A word on the Ki: it is a dissociation constant, usually derived from enzyme kinetics or from competition with a known ligand. In general, IC50 refers to the concentration that gives 50% inhibition. As for `COc1cc(OC)cc(OCc2ccccc2C(=O)Nc2ccc3nc(C)cc(N)c3c2)c1.Cl` [Example 10, N-(4-amino-2-methyl-6-quinolyl)-2-[(3,5-dimethoxyphenoxy)methyl]benzamide hydrochloride], the inhibition constant (Ki) at ORL-1 receptor was 53 nM; at μ receptor, 324 nM. The IC50 turned out to be 1020 nM on ORL-1 receptor and 860 nM at μ receptor. Moreover, in the series on allodynia model, the minimal effective dose was 3 mg/kg. The matching figures for `Cc1cc(N)c2cc(NC(=O)c3ccccc3COc3ccc(F)cc3)ccc2n1.Cl` [Example 25, N-(4-amino-2-methyl-6-quinolyl)-2-[(4-fluorophenoxy)methyl]benzamide hydrochloride]: 8 nM, 464 nM, 150 nM, 1180 nM and greater than 0.3 mg/kg. Taken in the same sequence, the figures for `Cc1cc(N)c2cc(NC(=O)c3ccccc3COc3ccc(I)cc3)ccc2n1` [Example 38, N-(4-amino-2-methyl-6-quinolyl)-2-[(4-iodophenoxy)methyl]benzamide] were 5 nM, 1020 nM, 90 nM, 2670 nM and greater than 0.3 mg/kg. Turning to `CCc1cc(N)c2cc(NC(=O)c3ccccc3COc3ccc(Cl)cc3Cl)ccc2n1` [Example 51], the Ki is 8 nM on ORL-1 receptor and 525 nM at μ receptor. Besides, the results for the concentration for half-maximal inhibition (IC50) on ORL-1 receptor and on μ receptor were 170 nM and 1400 nM, respectively. On to `Cc1cc(N)c2cc(NC(=O)c3ccccc3CCCOc3ccccc3)ccc2n1.Cl` [Example 61], for which, on ORL-1 receptor, the inhibition constant (Ki) is 63 nM and the half-inhibitory concentration (IC50) was found to be 1220 nM. For the same compound, on μ receptor, the inhibition constant (Ki) was 2010 nM and the IC50 amounted to 5350 nM. The minimal effective dose with allodynia model stood at 3 mg/kg. The matching figures for `Cc1cc(N)c2cc(NC(=O)c3ccccc3CCOc3ccccc3)ccc2n1.Cl` [Example 62]: 125 nM, 2360 nM, 783 nM, 2000 nM and greater than 3 mg/kg. Take `Cc1cc(N)c2cc(NC(=O)c3ccccc3CCCCCCCOc3ccccc3)ccc2n1.Cl` [Example 65]: on ORL-1 receptor, the Ki was 64 nM and the IC50 was 1160 nM. The minimal effective dose with allodynia model is greater than 3 mg/kg.

For `Cc1cc(N)c2cc(NC(=O)c3ccccc3CCc3ccccc3)ccc2n1` [Example 71], at ORL-1 receptor, the inhibitory constant (Ki) is 89 nM and the IC50 turned out to be 1770 nM. For the same compound, in the series with allodynia model, the minimal effective dose was 30 mg/kg.

Consider `Cc1cc(N)c2cc(NC(=O)c3ccccc3CN(C)c3ccc(Cl)cc3)ccc2n1` [Example 101], for which the melting point was determined as 214 °C. The same measure, in the same setting: as for `Cc1cc(N)c2cc(NC(=O)c3ccccc3CNc3ccc(Cl)cc3)ccc2n1` [Example 102], the figure is 274 °C; as for `Cc1cc(N)c2cc(NC(=O)[C@@H]3CCCN3CCOc3ccc(Cl)cc3)ccc2n1` [Example 113], 216 °C. `Cc1cc(N)c2cc(NC(=O)[C@@H]3CCCN3CCCOc3ccc(Cl)cc3)ccc2n1` [Example 114] yielded a melting point of 211 °C. Same read-out and setting: in the case of `Cc1cc(N)c2cc(NC(=O)[C@H]3CCCN3CCOc3ccc(Cl)cc3)ccc2n1` [Example 115] it was 253 °C.
